In brackets after ≈: the same amount, converted by molar mass. Structures can show the parent of a compound that is named as a salt. Where two headings read alike, the source gives them in different places.
Legend:
Assay type in all cases: cell-based
[1] = test system: Enterococcus faecalis ATCC 29212 = CCM 4224; test: MIC, microdilution method
Description: (§1) Disposable microtiter plates are used for testing. Samples are dissolved in infusion medium from brain and heart (BHI, HiMedia Laboraties Pvt. Ltd., Czech Republic) and Mueller-Hinton broth (HiMedia Laboraties, see above) to a final concentration ranging from 200 μg/ml to 1.5625 μg/ml. Plates are inoculated with a standard amount of test bacteria—the density of the inoculum in the well corresponds to 10^5-6 CFU/ml (colony forming units/ml, i.e. the number of viable bacterial cells/ml). MIC values are read after 24/48 hours of incubation at 37° C. as the minimum inhibitory concentration of the test substance at which bacterial growth is inhibited. The minimum bactericidal concentration (MBC) is characterized as the minimum concentration of the sample required to achieve irreversible inhibition, i.e. to kill the bacteria after a defined incubation period. MBC is determined by the inoculation method. Using an applicator, 10 μl from the well of a microtiter plate with a defined concentration of the test substance is taken to inoculate the surface of blood agar (Trios, Czech Republic). MBC is determined as the lowest concentration that inhibits the visible growth of the bacterium used on agar.

[2] = test system: Enterococcus faecium 419/ANA; test: MIC, microdilution method
Description: as §1

[3] = test system: Escherichia coli ATCC 25922 = CCM 3954; test: MIC, microdilution method
Description: as §1

Escherichia coli CE5556 = test: MIC, microdilution method
Description: as §1

[4] = test system: Pseudomonas aeruginosa ATCC 27853 = CCM 3955; test: MIC, microdilution method
Description: as §1

Pseudomonas aeruginosa R = test: MIC, microdilution method
Description: as §1

[5] = test system: Staphylococcus aureus 4591; test: MIC, microdilution method
Description: as §1

[6] = test system: Staphylococcus aureus ATCC 29213 = CCM 4223; test: MIC, microdilution method
Description: as §1

[7] = test system: Staphylococcus epidermidis CCM 7221; test: MIC, microdilution method
Description: as §1

[8] = test system: Candida albicans ATCC 90028 = CCM 8161; test: MIC, microdilution method
erythrocytes = test: Haemolytic activity of soluble samples
Description: Blood from three donors is mixed and centrifuged (10 min, 1000 g, 4° C.). The erythrocytes obtained are washed three times with NaCl solution (150 mmol·l^−1) and then used for experiments. Sample stock solutions are prepared in DMSO so that the final concentration of DMSO in NaCl is 0.5% (v/v). NaCl solution with the appropriate volume of DMSO serves as the negative control. 1% Triton-X100 is the positive control. The erythrocytes obtained are diluted to 2% with NaCl solution and pipetted into Eppendorf tubes (250 μl) with constant stirring. Samples and positive and negative controls are added to the erythrocytes prepared in this way and incubated (3 hours, 37° C.). The tubes are stirred during the incubation. After centrifugation (5 min, 1000 g), haemolytic activity is monitored by haemoglobin determination. The HC50 value is calculated from the measured absorbance values. The test is performed in triplets in three independent replicates. Iron Fe^2+ in haemoglobin is oxidized with potassium ferricyanide to iron Fe^3+ in methaemoglobin, which produces stable cyanomethaemoglobin with potassium cyanide, the concentration of which is determined spectrophotometrically. After the incubation of the erythrocytes with the substances, the cells are centrifuged (5 min, 1000 g), then Drabkin's solution (200 μl) is added to the supernatant (40 μl) and after incubation (10 min), the absorbance at 540 nm is measured.

Enterobacter kobei 3683 = test: MIC, microdilution method
Description: as §1

[9] = Staphylococcus epidermidis, CCM7221

| Compound | MIC ([1]; Enterococcus faecalis) | MIC ([2]; Enterococcus faecium, 419/ANA) | MIC ([3]; Escherichia coli) | MIC (Escherichia coli CE5556; Escherichia coli, CE5556) | MIC ([4]; Pseudomonas aeruginosa) | MIC (Pseudomonas aeruginosa R; Pseudomonas aeruginosa) | MIC ([5]; Staphylococcus aureus, 4591) | MIC ([6]; Staphylococcus aureus) | MIC [7, 9] | MIC ([8]; Candida albicans) | HC50 ± SD (erythrocytes) | MIC (Enterobacter kobei 3683; Enterobacter kobei, 3683) | also measured |
| --- | --- | --- | --- | --- | --- | --- | --- | --- | --- | --- | --- | --- | --- |
| CCCC/C=C\CCOP(=O)(CCN(CCCN)CCCN)OCCCCCCOP(=O)(CCN(CCCN)CCCN)OCC/C=C\CCCC (centres unmarked) [Example 57, Hexane-1,6-diyl di((Z)-oct-3-en-1-yl) bis((2-(bis(3-aminopropyl)amino)-ethyl)phosphonate) hexahydrochloride] | 16 µg/mL | 64 µg/mL | 2 µg/mL | 2 µg/mL | 16 µg/mL | 16 µg/mL | 1 µg/mL | 1 µg/mL | 0.5 µg/mL | 64 µg/mL | 34.8 | – | – |
| Dibutyl dodecane-1,12-diyl bis((2-(bis(3-aminopropyl)amino)ethyl)-phosphonate) hexahydrochloride [Example 47] | – | – | – | – | – | – | – | – | – | – | >100 | – | MIC (Enterobacter kobei 3683): 128 µg/mL; MIC [1]: 2 µg/mL; MIC [2]: 16 µg/mL; MIC [3]: 16 µg/mL; MIC (Escherichia coli CE5556): 32 µg/mL; MIC [4]: 4 µg/mL; MIC (Pseudomonas aeruginosa R; 24/48 hours at 37° C.): 4 µg/mL; MIC [5]: 1 µg/mL; MIC [6]: 1 µg/mL; MIC [7]: 0.5 µg/mL; MIC [8]: 16 µg/mL |
| CCCCCCOP(=O)(CCN(CCN)CCN)OCCCCCCCCOP(=O)(CCN(CCN)CCN)OCCCCCC (centres unmarked) [Example 55, Dihexyl octane-1,8-diyl bis((2-(bis(2-aminoethyl)amino)ethyl)phosphonate) hexahydrochloride] | 128 µg/mL | > 128 µg/mL | > 128 µg/mL | > 128 µg/mL | 64 µg/mL | 64 µg/mL | 4 µg/mL | 2 µg/mL | 2 µg/mL | 32 µg/mL | >100 | > 128 µg/mL | – |
| Dodecan-1,10-diyl dioctyl bis((2-(bis(3-aminopropyl)amino)ethyl)-phosphonate) tetrahydrochloride [Example 49] | – | – | – | – | – | – | – | – | – | – | >100 | – | MIC (Enterobacter kobei 3683): 128 µg/mL; MIC [1]: 4 µg/mL; MIC [2]: 32 µg/mL; MIC (Escherichia coli CE5556): 16 µg/mL; MIC [4]: 8 µg/mL; MIC (Pseudomonas aeruginosa R; 24/48 hours at 37° C.): 8 µg/mL; MIC [5]: 4 µg/mL; MIC [7]: 0.5 µg/mL; MIC [8]: 8 µg/mL |
| CC(C)COP(=O)(CCN(CCCN)CCCN)OCCCCCCCCCCCCOP(=O)(CCN(CCCN)CCCN)OCC(C)C (centres unmarked) [Example 46, Dodecane-1,12-diyl diisobutyl bis((2-(bis(3-aminopropyl)amino)ethyl)-phosphonate) hexahydrochloride] | 32 µg/mL | > 128 µg/mL | 128 µg/mL | > 128 µg/mL | 32 µg/mL | 16 µg/mL | 4 µg/mL | 4 µg/mL | 1 µg/mL | 64 µg/mL | >100 | > 128 µg/mL | – |
| NCCCN(CCCN)CCP(=O)(OCCCCCCCCCCCCOP(=O)(CCN(CCCN)CCCN)OCCc1ccccc1)OCCc1ccccc1 (centres unmarked) [Example 50] | 4 µg/mL (≈ 4.69 µM) | 2 µg/mL (≈ 2.34 µM) | 16 µg/mL (≈ 18.8 µM) | 2 µg/mL (≈ 2.34 µM) | 4 µg/mL (≈ 4.69 µM) | 2 µg/mL (≈ 2.34 µM) | 1 µg/mL (≈ 1.17 µM) | 2 µg/mL (≈ 2.34 µM) | 0.5 µg/mL (≈ 0.586 µM) | 4 µg/mL (≈ 4.69 µM) | >100 | 8 µg/mL (≈ 9.38 µM) | – |
| Dihexyl tetradecan-1,14-diyl bis((2-(bis(3-aminopropyl)amino)ethyl)-phosphonate) tetrahydrochloride [Example 54] | – | – | – | – | – | – | – | – | – | – | >100 | – | MIC (Enterobacter kobei 3683): >128 µg/mL; MIC [1]: 8 µg/mL; MIC [2]: 64 µg/mL; MIC [3]: 4 µg/mL; MIC (Escherichia coli CE5556): 16 µg/mL; MIC [4]: 8 µg/mL; MIC (Pseudomonas aeruginosa R; 24/48 hours at 37° C.): 8 µg/mL; MIC [5]: 1 µg/mL; MIC [6]: 1 µg/mL; MIC [7]: 0.5 µg/mL; MIC [8]: 16 µg/mL |
| CC(C)COP(=O)(CCN(CCCN)CCCN)OCCCCCCCCCCCCCCOP(=O)(CCN(CCCN)CCCN)OCC(C)C (centres unmarked) [Example 51, Tetradecane-1,14-diyl diisobutyl bis((2-(bis(3-aminopropyl)amino)ethyl)-phosphonate) hexahydrochloride] | 4 µg/mL | 16 µg/mL | 16 µg/mL | 32 µg/mL | 4 µg/mL | 4 µg/mL | 2 µg/mL | 2 µg/mL | 0.5 µg/mL | 32 µg/mL | >100 | 64 µg/mL | – |
| CCCCCOP(=O)(CCN(CCCN)CCCN)OCCCCCCCCCCCCOP(=O)(CCN(CCCN)CCCN)OCCCCC (centres unmarked) [Example 48, Dodecane-1,12-diyl dipentyl bis((2-(bis(3-aminopropyl)amino)ethyl)-phosphonate) hexahydrochloride] | 1 µg/mL | 1 µg/mL | 1 µg/mL | 1 µg/mL | 2 µg/mL | 2 µg/mL | 1 µg/mL | 1 µg/mL | 0.5 µg/mL | 2 µg/mL | 4 | 1 µg/mL | – |
| CC(C)COP(=O)(CCN(CCCN)CCCN)OCCCCCCCCCCOP(=O)(CCN(CCCN)CCCN)OCC(C)C (centres unmarked) [Example 40, Diisobutyl decane-1,10-diyl bis((2-(bis(3-aminopropyl)amino)ethyl)-phosphonate) hexahydrochloride] | 128 µg/mL | > 128 µg/mL | > 128 µg/mL | > 128 µg/mL | > 128 µg/mL | > 128 µg/mL | 8 µg/mL | 16 µg/mL | 4 µg/mL | 128 µg/mL | >100 | > 128 µg/mL | – |
| CCCC/C=C\CCOP(=O)(CCN(CCCN)CCCN)OCCCCCOP(=O)(CCN(CCCN)CCCN)OCC/C=C\CCCC (centres unmarked) [Example 58, Di((Z)-oct-3-en-1-yl) pentane-1,5-diyl bis((2-(bis(3-aminopropyl)amino)ethyl)-phosphonate) hexahydrochloride] | 2 µg/mL | 4 µg/mL | 8 µg/mL | 4 µg/mL | 32 µg/mL | 32 µg/mL | 128 µg/mL | 0.5 µg/mL | 2 µg/mL | 64 µg/mL | 70 | – | – |

Source: US12540148B2, “Lipophosphonoxins, their preparation and use” (USTAV ORGANICKE CHEMIE A BIOCHEMIE AV CR, V. V. I., priority 2019, dated 2026)
